# Measurements: patent US6552058B1, “Oxazolidinedione derivatives and their use” (Takeda Chemical Industries, Ltd., priority 1993, dated 2003)
# Like-named read-outs stand apart in the source and are kept apart here.
# Columns and labels:
# KKA^y mice = assay: Hypoglycemic and hypolipidemic actions in mice (plasma glucose and triglyceride); type: in vivo; conditions: Mus musculus, po, 96 h, reduction from control group, 0.005% in powdery feed for 4 days
# Excerpt: Hypoglycemic and Hypolipidemic Actions in Mice
# A test compound mixed in a powdery feed (CE-2, Japan Clea) at a rate of 0.005% was fed to KKA^y mice (9-14 week old) freely for 4 days. During the period, the animals had free access to water. Blood was collected from the orbital venous plexus. Using the plasma, glucose and triglyceride were enzymatically determined quantitatively by using Iatrochem-GLU(A) and Iatro-MA701 TG kit (latron Inc.). The respective values are percents reduction (%) found in drug-dosed groups from the control group not receiving the test compound, which are shown in [Table 1].
# [1] = plasma glucose, read-out: Hypoglycemic Action % reduction
# [2] = plasma triglyceride, read-out: Hypolipidemic Action % reduction
SMILES,melting point,inhibition in vivo at 0.005 % in diet (KKA^y mice; [1]),inhibition in vivo at 0.005 % in diet (KKA^y mice; [2])
"Cc1cccc(-c2nc(CCOc3ccc(C=CC=C4OC(=O)NC4=O)cc3)c(C)o2)c1 [Example 1, 5-[4-[2-[5-methyl-2-(3-methylphenyl)-4-oxazolyl]ethoxy]cinnamylidene]-2,4-oxazolidinedione]",213 to 214 °C,,
"Cc1oc(-c2ccccc2)nc1Cc1cc2cc(C=CC=C3OC(=O)NC3=O)ccc2o1 [Example 14, 5-[3-[2-(5-methyl-2-phenyl-4-oxazolylmethyl)benzofuran-5-yl]-2-propenylidene]-2,4-oxazolidinedione]",237 to 239 °C,,
"Cc1oc(-c2ccccc2)nc1CCOc1ccc(C=CC=CC=C2OC(=O)NC2=O)cc1 [Example 15, 5-[5-[4-[2-(5-methyl-2-phenyl-4-oxazolyl)ethoxy]phenyl]-2,4-pentadienylidene]-2,4-oxazolidinedione]",209 to 211 °C,,
"Cc1cccc(-c2nc(CCOc3ccc(CCCC4OC(=O)NC4=O)cc3)c(C)o2)c1 (stereo not drawn) [Example 16, 5-[3-[4-[2-[5-methyl-2-(3-methylphenyl)-4-oxazolyl]ethoxy]phenyl]propyl]-2,4-oxazolidinedione]",149 to 150 °C,,
"Cc1oc(-c2ccccc2)nc1COc1ccc(CCC2OC(=O)NC2=O)cc1 (stereo not drawn) [Example 32, 5-[2-[4-(5-methyl-2-phenyl-4-oxazolylmethoxy)phenyl]ethyl]-2,4-oxazolidinedione]",,63%,60%
"Cc1oc(-c2ccccc2)nc1C(=O)COc1ccc(CCCC2OC(=O)NC2=O)cc1 (stereo not drawn) [Example 35, 5-[3-[4-[2-(5-methyl-2-phenyl-4-oxazolyl)-2-oxoethoxy]phenyl]propyl]-2,4-oxazolidinedione]",,42%,32%
"Cc1oc(-c2ccccc2)nc1COc1ccc(CCCC2OC(=O)NC2=O)cn1 (stereo not drawn) [Example 52, 5-[3-[2-(5-methyl-2-phenyl-4-oxazolylmethoxy)-5-pyridyl]propyl]-2,4-oxazolidinedione]",,54%,82%
"Cc1oc(-c2ccccc2)nc1COc1cccc(CCCC2OC(=O)NC2=O)c1 (stereo not drawn) [Example 56, 5-[3-[3-(5-methyl-2-phenyl-4-oxazolylmethoxy)phenyl]propyl]-2,4-oxazolidinedione]",,32%,24%
"Cc1oc(-c2ccccc2)nc1COc1ccc(C(C)CCC2OC(=O)NC2=O)cc1 (stereo not drawn) [Example 60, 5-[3-[4-(5-methyl-2-phenyl-4-oxazolylmethoxy)phenyl]butyl]-2,4-oxazolidinedione]",,54%,77%

# More lines, main results first:
melting point,SMILES,inhibition in vivo at 0.005 % in diet (KKA^y mice; [1]),inhibition in vivo at 0.005 % in diet (KKA^y mice; [2])
169 to 171 °C,"Cc1oc(-c2ccccc2)nc1CCOc1ccc(CCCC2OC(=O)NC2=O)cn1 (stereo not drawn) [Example 23, 5-[3-[2-[2-(5-methyl-2-phenyl-4-oxazolyl)ethoxy]-5-pyridyl]propyl]-2,4-oxazolidinedione]",39%,33%
193 to 194 °C,"Cc1oc(-c2ccccc2)nc1CCOc1ccc(CCC2OC(=O)NC2=O)cc1 (stereo not drawn) [Example 24, 5-[2-[4-[2-(5-methyl-2-phenyl-4-oxazolyl)ethoxy]phenyl]ethyl]-2,4-oxazolidinedione]",56%,53%
184 to 185 °C,"Cc1oc(-c2ccccc2)nc1Cc1cc2cc(CCCC3OC(=O)NC3=O)ccc2o1 (stereo not drawn) [Example 30, 5-[3-[2-(5-methyl-2-phenyl-4-oxazolylmethyl)benzofuran-5-yl]propyl]-2,4-oxazolidinedione]",57%,70%
157 to 158 °C,"Cc1oc(-c2ccccc2)nc1CCOc1ccc(CCCCCC2OC(=O)NC2=O)cc1 (stereo not drawn) [Example 31, 5-[5-[4-[2-(5-methyl-2-phenyl-4-oxazolyl)ethoxy]phenyl]pentyl]-2,4-oxazolidinedione]",,
120 to 121 °C,"Cc1oc(-c2ccccc2)nc1COc1ccc(CCCCCC2OC(=O)NC2=O)cc1 (stereo not drawn) [Example 33, 5-[5-[4-(5-methyl-2-phenyl-4-oxazolylmethoxy)phenyl]pentyl]-2,4-oxazolidinedione]",45%,59%
186 to 187 °C,"Cc1oc(-c2ccccc2)nc1COc1ccc(CCCCC2OC(=O)NC2=O)cc1 (stereo not drawn) [Example 34, 5-[4-[4-(5-methyl-2-phenyl-4-oxazolylmethoxy)phenyl]butyl]-2,4-oxazolidinedione]",43%,51%
146 to 147 °C,"Cc1oc(-c2ccccc2)nc1C(O)COc1ccc(CCCC2OC(=O)NC2=O)cc1 (stereo not drawn) [Example 36, 5-[3-[4-[2-hydroxy-2-(5-methyl-2-phenyl-4-oxazolyl)ethoxy]phenyl]propyl]-2,4-oxazolidinedione]",56%,48%
